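48-hour exposure; five concentrations; linearly interpolated endpoints. TGI: concentration producing complete growth inhibition.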
What was measured:
Test in all cases: NCI tumour cell line growth inhibition, 48 h
[1] = system: IGROV1 ovarian
[2] = system: SK-OV-3 ovarian
[3] = system: HCC-2998 colon
[4] = system: RPMI-8226 leukemia
[5] = system: HOP-62 NSCLC
[6] = system: TK-10 renal
[7] = system: OVCAR-4 ovarian
[8] = system: OVCAR-5 ovarian
[9] = system: UACC-257 melanoma
[10] = system: HS 578T breast
[11] = system: MDA-MB-231 breast
[12] = system: RXF 393 renal
[13] = system: NCI-H522 lung
[14] = system: SW-620 colon
[15] = system: MCF7 breast
[16] = system: HCT-15 colon
[17] = system: MALME-3M melanoma
[18] = system: SK-MEL-2 melanoma
[19] = system: EKVX NSCLC
[20] = system: U251 CNS
[21] = system: UO-31 renal
[22] = system: SR leukemia
[23] = system: CAKI-1 renal
[24] = system: LOX IMVI melanoma
[25] = system: NCI-H226 lung
[26] = system: MOLT-4 leukemia
[27] = system: HOP-92 NSCLC
[28] = system: MDA-N
[29] = system: SF-268 CNS
[30] = system: A498 renal
[31] = system: SF-539 CNS
[32] = system: PC-3 prostate
[33] = system: NCI-H23 lung
[34] = system: SK-MEL-5 melanoma
[35] = system: NCI/ADR-RES ovarian
[36] = system: DU-145 prostate
[37] = system: NCI-H460 lung
[38] = system: OVCAR-3 ovarian
[39] = system: SNB-75 CNS
[40] = system: 786-0 renal
[41] = system: OVCAR-8 ovarian
[42] = system: ACHN renal
[43] = system: SF-295 CNS
[44] = system: SN12C renal
[45] = system: MDA-MB-435
[46] = system: SK-MEL-28 melanoma
[47] = system: KM12 colon
[48] = system: COLO 205 colon
[49] = system: T-47D breast
[50] = system: HT29 colon
[51] = system: M14 melanoma
[52] = system: A549 NSCLC
[53] = system: SNB-19 CNS
[54] = system: HL-60(TB) leukemia
[55] = system: HCT-116 colon
[56] = system: BT-549 breast
[57] = system: K-562 leukemia
[58] = system: CCRF-CEM leukemia
[59] = system: UACC-62 melanoma

## COc1ccc(N=Nc2ccc3oc(=O)c(C(=O)Nc4ccccc4C)cc3c2)cc1
[1]
  TGI: > 10 µM
[2]
  TGI: > 10 µM
[3]
  TGI: > 10 µM
[4]
  TGI: > 10 µM
[5]
  TGI: > 10 µM
[6]
  TGI: > 10 µM
[7]
  TGI: > 10 µM
[8]
  TGI: > 10 µM
[9]
  TGI: > 10 µM
[10]
  TGI: > 10 µM
[11]
  TGI: > 10 µM
[12]
  TGI: > 10 µM
[13]
  TGI: > 10 µM
[14]
  TGI: > 10 µM
[15]
  TGI: > 10 µM
[16]
  TGI: > 10 µM
[17]
  TGI: > 10 µM
[18]
  TGI: > 10 µM
[19]
  TGI: > 10 µM
[20]
  TGI: > 10 µM
[21]
  TGI: > 10 µM
[22]
  TGI: > 10 µM
[23]
  TGI: > 10 µM
[24]
  TGI: > 10 µM
[25]
  TGI: > 10 µM
[26]
  TGI: > 10 µM
[27]
  TGI: > 10 µM
[28]
  TGI: > 10 µM
[29]
  TGI: > 10 µM
[30]
  TGI: > 10 µM
[31]
  TGI: > 10 µM
[32]
  TGI: > 10 µM
[33]
  TGI: > 10 µM
[34]
  TGI: > 10 µM
[35]
  TGI: > 10 µM
[36]
  TGI: > 10 µM
[37]
  TGI: > 10 µM
[38]
  TGI: > 10 µM
[39]
  TGI: > 10 µM
[40]
  TGI: > 10 µM
[41]
  TGI: > 10 µM
[42]
  TGI: > 10 µM
[43]
  TGI: > 10 µM
[44]
  TGI: > 10 µM
[45]
  TGI: > 10 µM
[46]
  TGI: > 10 µM
[47]
  TGI: > 10 µM
[48]
  TGI: > 10 µM
[49]
  TGI: > 10 µM
[50]
  TGI: > 10 µM
[51]
  TGI: > 10 µM

## Nc1cccc(OCC2CCCN3CCCCC23)c1 (configuration not stated)
[2]
  TGI: > 100 µM
[3]
  TGI: 30 µM
[4]
  TGI: 33.1 µM
[52]
  TGI: 45.1 µM
[5]
  TGI: 36.1 µM
[6]
  TGI: 34.1 µM
[7]
  TGI: 47.2 µM
[8]
  TGI: 35.2 µM
[9]
  TGI: 34.3 µM
[10]
  TGI: 35.2 µM
[11]
  TGI: 32.6 µM
[12]
  TGI: 42.7 µM
[14]
  TGI: 39.4 µM
[15]
  TGI: 37.1 µM
[16]
  TGI: 31.5 µM
[17]
  TGI: 40.4 µM
[53]
  TGI: 32.8 µM
[18]
  TGI: 44.9 µM
[19]
  TGI: 31.7 µM
[20]
  TGI: 44.6 µM
[21]
  TGI: 75.2 µM
[23]
  TGI: 35.2 µM
[24]
  TGI: 31.4 µM
[25]
  TGI: > 100 µM
[26]
  TGI: 39.2 µM
[54]
  TGI: 39.7 µM
[27]
  TGI: 87.4 µM
[28]
  TGI: 30.8 µM
[29]
  TGI: 36.2 µM
[30]
  TGI: 28.2 µM
[31]
  TGI: 36.5 µM
[32]
  TGI: 37.7 µM
[55]
  TGI: 30.4 µM
[56]
  TGI: 30.9 µM
[33]
  TGI: 34.3 µM
[34]
  TGI: 33.8 µM
[35]
  TGI: 38.3 µM
[36]
  TGI: 32.6 µM
[37]
  TGI: 36.3 µM
[38]
  TGI: 38.2 µM
[39]
  TGI: 30.8 µM
[40]
  TGI: 29.6 µM
[41]
  TGI: 34.4 µM
[57]
  TGI: 76.1 µM
[42]
  TGI: 31.9 µM
[43]
  TGI: 33.8 µM
[44]
  TGI: 33.6 µM
[58]
  TGI: 34.4 µM
[45]
  TGI: 40.2 µM
[46]
  TGI: 35.7 µM
[47]
  TGI: 32.4 µM
[59]
  TGI: 31.8 µM
[48]
  TGI: 36.8 µM
[49]
  TGI: 33.8 µM
[50]
  TGI: 25.1 µM
[51]
  TGI: 41.4 µM
